In brackets after ≈: the same amount, converted by molar mass. Where two headings read alike, the source gives them in different places.

In data set [1] the test system is Bacillus subtilis #10707. Briefly: Minimum growth inhibitory concentration by agar dilution method. It counts as cell-based. The settings on record: for MIC: Bacillus subtilis, pH 7, read-out: Minimum growth inhibitory concentration; for Minimum growth inhibitory concentration: Bacillus subtilis #10707, agar dilution method at pH 7.0. From the text:
(§1) Minimum growth inhibitory concentration (μg/ml)
(§2) by agar dilution method at pH 7.0
On the technique in general: Agar dilution tests growth on a series of plates holding different concentrations.

The test system of data set [2] is Klebsiella pneumoniae ATCC 10031. The description is as above. It counts as cell-based. The note with it: for Minimum growth inhibitory concentration: Klebsiella pneumoniae ATCC 10031, agar dilution method at pH 7.0.
Excerpt: as §1, §2

Data set [3] has as its system Proteus vulgaris ATCC 6897. The data set is described as above. The note with it: for MIC: Proteus vulgaris; for Minimum growth inhibitory concentration: Proteus vulgaris ATCC 6897. The class given is cell-based.
Excerpt: as §1, §2

The subject of data set [4] is Pseudomonas cepacia ATCC 25608. The data set is described as above. It counts as cell-based. The note with it: for MIC: Burkholderia cepacia, ATCC25608, pH 7, read-out: Minimum growth inhibitory concentration; for Minimum growth inhibitory concentration: Pseudomonas cepacia ATCC 25608, agar dilution method at pH 7.0.
Excerpt: as §1, §2

Data set [5] relates to Serratia marcescens ATCC 4003. Described as above. It counts as cell-based. The settings on record: for MIC: Serratia marcescens, ATCC4003, pH 7, read-out: Minimum growth inhibitory concentration; for Minimum growth inhibitory concentration: Serratia marcescens ATCC 4003, agar dilution method at pH 7.0.
Excerpt: as §1, §2

In data set [6] the test system is Shigella sonnei ATCC 9290. Described as above. It counts as cell-based. The settings on record: for MIC: Shigella sonnei; for Minimum growth inhibitory concentration: Shigella sonnei ATCC 9290.
Excerpt: as §1, §2

Data set [7] relates to Staphylococcus aureus ATCC 6538P. Described as above. It counts as cell-based. The note with it: for MIC: Staphylococcus aureus, ATCC6538P; for Minimum growth inhibitory concentration: Staphylococcus aureus ATCC 6538P.
Excerpt: as §1, §2

For data set [8], the system named is Salmonella typhosa ATCC 9992. The description is as above. The class given is cell-based. The settings on record: for Minimum growth inhibitory concentration: Salmonella typhosa ATCC 9992, agar dilution method at pH 7.0.
Data set [9] deals with mouse. Briefly: LD50 (mouse, ip.). It counts as in vivo. From the text: (§3) | LD50 (mouse, ip.) (mg/kg)
Data set [10] concerns various microorganisms. Briefly: Growth inhibition of various microorganisms / antibacterial activity (in words). The class given is cell-based. The note with it: statement in words.
Excerpt: as §1, §2

The subject of data set [11] is Escherichia coli ATCC 26. Briefly: Minimum growth inhibitory concentration by agar dilution method. It counts as cell-based. The note with it: for Minimum growth inhibitory concentration: Escherichia coli ATCC 26, agar dilution method at pH 7.0; for MIC: Escherichia coli, ATCC26, pH 7, read-out: Minimum growth inhibitory concentration.
Excerpt: as §1, §2

Data set [12] in a line: LD50 (mouse, ip.). The note with it: in vivo, ip. The class given is in vivo.
Excerpt: as §3

[13] abbreviates: agar dilution method at pH 7.0, listed as Vb-1.
Setting [14] is: agar dilution method at pH 7.0, listed as M-B.
[15] abbreviates: agar dilution method at pH 7.0, listed as M-D.

The LD50 is the dose expected to kill half of the subjects tested. Turning to `CC1=C(N)C(=O)C2=C(C1=O)N1CC3C(N3C)C1(O)C2COC(N)=O` (stereo not drawn) [9-epi-mitomycin D], the MIC was 6.3 µg/mL (≈ 18.8 µM) in data set [1]; 12.5 µg/mL (≈ 37.4 µM) in [3] (ATCC6897, pH 7, read-out: Minimum growth inhibitory concentration, Proteus vulgaris ATCC 6897, agar dilution method at pH 7.0); over 50 µg/mL in [4]; over 50 µg/mL in data set [5]; over 50 µg/mL in data set [6] (ATCC9290, pH 7, read-out: Minimum growth inhibitory concentration, Shigella sonnei ATCC 9290, agar dilution method at pH 7.0); 25 µg/mL (≈ 74.8 µM) in [7] (pH 7, read-out: Minimum growth inhibitory concentration, Staphylococcus aureus ATCC 6538P, agar dilution method at pH 7.0). Also, in data set [8] (Salmonella enterica, pH 7, read-out: Minimum growth inhibitory concentration), the MIC was over 50 µg/mL. Moreover, the “Minimum growth inhibitory concentration” value in [2] (listed as Va-1) worked out at 3.1 µg/mL. Further, in [9], the LD50 was 150 mg/kg. Further, the “inhibiting activity against the growth of various microorganisms / antibacterial activity” value in data set [10] is given as “high inhibiting activity”.

Turning to `COC1=C(C)C(=O)C2=C(C1=O)C(COC(N)=O)C1(O)C3C(CN21)N3C` (stereo not drawn) [9-epi-mitomycin B], the “Minimum growth inhibitory concentration” value in [1] (listed as Vb-1) was under 0.024 µg/mL; in data set [11] (listed as Vb-1), 12.5 µg/mL; in [2] (listed as Vb-1), under 0.024 µg/mL; in [3] (setting [13]), 0.049 µg/mL; in [4] (listed as Vb-1), 25 µg/mL; in data set [5] (listed as Vb-1) it was 3.1 µg/mL. Besides, the “Minimum growth inhibitory concentration” value in [6] (setting [13]) stood at 6.3 µg/mL; in data set [7] (setting [13]), 0.049 µg/mL; in data set [8] (listed as Vb-1), 6.3 µg/mL. This molecule also had a 50% lethal dose (LD50) in [12] of 7.5 mg/kg. The “inhibiting activity against the growth of various microorganisms / antibacterial activity” value in [10] was “high inhibiting activity”.

Regarding `CO[C@@]12[C@H](COC(N)=O)C3=C(C(=O)C(C)=C(N)C3=O)N1C[C@@H]1N[C@@H]12` [mitomycin C, Mitomycin C], the MIC in [1] came out at 0.02 µg/mL (≈ 0.0598 µM); in data set [11] it was 10 µg/mL (≈ 29.9 µM); in data set [2] (Klebsiella pneumoniae, ATCC10031, pH 7, read-out: Minimum growth inhibitory concentration) it was 0.0098 µg/mL (≈ 0.0293 µM); in [3] (ATCC6897, pH 7, read-out: Minimum growth inhibitory concentration) it was 0.078 µg/mL (≈ 0.233 µM); in data set [4], 10 µg/mL (≈ 29.9 µM); in data set [5], 5 µg/mL (≈ 15 µM). Also, the MIC in data set [6] (ATCC9290, pH 7, read-out: Minimum growth inhibitory concentration) is 5 µg/mL (≈ 15 µM); in data set [7] (pH 7, read-out: Minimum growth inhibitory concentration) it was 0.156 µg/mL (≈ 0.467 µM).

Turning to `COC1=C(C)C(=O)C2=C(C1=O)C(COC(N)=O)C1(O)C3C(CN21)N3C` (centres unmarked) [mitomycin B, Mitomycin B], the “Minimum growth inhibitory concentration” value in data set [1] (listed as M-B) was 0.020 µg/mL; in data set [11] (listed as M-B), over 10 µg/mL; in data set [2] (listed as M-B) it was 0.16 µg/mL; in data set [3] (setting [14]) it was 0.078 µg/mL; in data set [4] (listed as M-B) it was 10 µg/mL; in data set [5] (listed as M-B), 2.5 µg/mL. Further, the “Minimum growth inhibitory concentration” value stood at 5.0 µg/mL in data set [6] (setting [14]), 0.039 µg/mL in data set [7] (setting [14]) and 10.0 µg/mL in data set [8] (listed as M-B). The LD50 in data set [9] came out at 4.5 mg/kg.

On to `CC1=C(N)C(=O)C2=C(C1=O)N1CC3C(N3C)C1(O)C2COC(N)=O` (centres unmarked) [mitomycin D, 7-amino-7-demethoxy mitomycin B], for which the “Minimum growth inhibitory concentration” value is 6.3 µg/mL in data set [1]; 6.3 µg/mL in data set [2] (listed as M-D); 25 µg/mL in data set [3] (setting [15]); 50 µg/mL in data set [6] (setting [15]); 50 µg/mL in data set [7] (setting [15]); over 50 µg/mL in [8]. Further, the MIC in data set [11] was over 50 µg/mL. The molecule further came in with a median lethal dose (LD50) in [9] of 430 mg/kg.

The record behind these values is patent US4395558A, “9-Epi-mitomycin B and D compounds” (Kyowa Hakko Kogyo Kabushiki Kaisha, priority 1979, dated 1983).
